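The compound was tested at five concentrations on cells cultured in 96-well plates, with a 48-hour exposure period. GI50 marks 50% less growth.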 Calls of active or inactive are those of the source. Rule as the data show it: active = GI50 up to about 1.1 µM and inactive = higher.

Some test systems named below: CCRF-CEM; COLO 205; EKVX; HCC 2998; HOP-62; HT-29; M14; MOLT-4; Malme-3M; NCI-H460; OVCAR-4; OVCAR-5; OVCAR-8; RPMI-8226; SK-MEL-2; SR; SW-620; T47D; U-251; UO-31.
Common to all, as to assay: DTP human tumour cell line panel, 48 h

What is called GI50 is the concentration giving 50% growth inhibition. For `c1cc(C2=NCCO2)c2ccsc2c1`, the GI50 with CCRF-CEM, in the experiment with COLO 205, in the experiment on EKVX, with HCC 2998, in the experiment on HOP-62 and in the experiment on HT-29 was > 100 µM (inactive) each time. The GI50 in the experiment on M14, with MOLT-4, in the experiment on Malme-3M, in the experiment on NCI-H460, in the experiment with OVCAR-4 and in the experiment on OVCAR-5 was > 100 µM (inactive) in each case. Also, the GI50 in the experiment on OVCAR-8, in the experiment on RPMI-8226, with SK-MEL-2, with SR, in the experiment on SW-620 and in the experiment with T47D was > 100 µM (inactive) throughout. Further, the GI50 with U-251 and in the experiment on UO-31 was > 100 µM (inactive) in each case.
For `CN(C)CCNC(=O)c1cccc2c1Oc1c(cccc1[N+](=O)[O-])O2`, the concentration for 50% growth inhibition (GI50) was 0.371 µM (active) in the experiment with CCRF-CEM; 1.87 µM (inactive) in the experiment on COLO 205; 3.22 µM (inactive) with EKVX; 1.04 µM (active) in the experiment on HCC 2998; 0.472 µM (active) in the experiment on HOP-62; 1.41 µM (inactive) with HT-29. The GI50 is 2.64 µM (inactive) in the experiment on M14; 0.298 µM (active) with MOLT-4; 1.33 µM (inactive) with Malme-3M; 0.413 µM (active) in the experiment with NCI-H460; 5.04 µM (inactive) in the experiment on OVCAR-4; 2.18 µM (inactive) in the experiment with OVCAR-5. Further, the GI50 in the experiment with OVCAR-8 was 1.71 µM (inactive); in the experiment with RPMI-8226, 0.583 µM (active); with SK-MEL-2, 0.29 µM (active); in the experiment with SR, 0.462 µM (active); in the experiment with SW-620, 1.06 µM (active); with T47D, 0.323 µM (active). Also, the GI50 in the experiment on U-251 was 0.787 µM (active); with UO-31, 0.885 µM (active).
As for `C=C1C(O)C23CCC4C(C(=O)O)(C(=O)O)CC(OC5OC(CO)C(O)C(OC(=O)CCc6ccccc6)C5NC(=O)CC(C)C)CC4(C)C2CCC1(O)C3` (stereo not given), the GI50 in the experiment with CCRF-CEM, with COLO 205, in the experiment on EKVX, in the experiment with HCC 2998, with HOP-62 and in the experiment on HT-29 was > 100 µM (inactive) each time. Also, the GI50 with M14, in the experiment with MOLT-4, with Malme-3M, with NCI-H460, with OVCAR-4 and in the experiment on OVCAR-5 was > 100 µM (inactive) each time. Also, the GI50 in the experiment with OVCAR-8, in the experiment on RPMI-8226, with SK-MEL-2, with SR, in the experiment with SW-620 and with T47D was > 100 µM (inactive) throughout. In addition, the GI50 in the experiment with U-251 and in the experiment with UO-31 was > 100 µM (inactive) throughout.
For the molecule `COC1(C)CCC(OS(C)(=O)=O)CO1` (stereo not given), the GI50 with CCRF-CEM, in the experiment with COLO 205, with EKVX, in the experiment with HCC 2998, in the experiment with HOP-62 and in the experiment with HT-29 was > 100 µM (inactive) throughout. Also, the GI50 in the experiment on M14, with MOLT-4, with Malme-3M, in the experiment with NCI-H460, with OVCAR-4 and with OVCAR-5 was > 100 µM (inactive) each time. For the same molecule, the GI50 in the experiment on OVCAR-8, in the experiment with RPMI-8226, in the experiment with SK-MEL-2, with SR, in the experiment on SW-620 and in the experiment on T47D was > 100 µM (inactive) throughout. Further, the GI50 with U-251 and in the experiment on UO-31 was > 100 µM (inactive) throughout.
`CC1OC(O[C@H]2CC[C@]3(C=O)[C@H]4CC[C@]5(C)[C@H](C6=CC(=O)OC6)CC[C@]5(O)[C@@H]4C=C[C@]3(O)C2)CC(O)C1O` (stereo not given in full): the GI50 in the experiment on CCRF-CEM was 0.102 µM (active); in the experiment on COLO 205, 0.675 µM (active); with EKVX, 0.261 µM (active); with HCC 2998, 0.836 µM (active); in the experiment on HOP-62 it was 0.188 µM (active); in the experiment with HT-29, 0.321 µM (active). For the same molecule, the GI50 is 0.386 µM (active) in the experiment with M14; 0.083 µM (active) in the experiment on MOLT-4; 0.13 µM (active) in the experiment on Malme-3M; 0.118 µM (active) in the experiment with NCI-H460; 0.349 µM (active) in the experiment with OVCAR-4; 0.547 µM (active) with OVCAR-5. For the same molecule, the GI50 was 0.346 µM (active) in the experiment with OVCAR-8; 0.136 µM (active) in the experiment with RPMI-8226; 0.505 µM (active) in the experiment with SK-MEL-2; 0.0933 µM (active) with SR; 0.313 µM (active) in the experiment with SW-620; 0.524 µM (active) in the experiment on T47D. Besides, the GI50 in the experiment with U-251 is 0.355 µM (active); with UO-31, 0.214 µM (active).
As to `COc1ccc(C[C@@H](C(=O)O[C@H](C)[C@H](NC(=O)[C@@H](CC(C)C)N(C)C(=O)C2CCCN2C(=O)[C@H](C)O)C(=O)N2CCCCNC(=O)[C@@H](C)C(=O)[C@H](C(C)C)OC(=O)C[C@H](O)[C@H]2CC(C)C)N(C)C(C)=O)cc1` (stereo not given in full), the GI50 with CCRF-CEM was 8.61 µM (inactive); in the experiment with COLO 205, 6.82 µM (inactive); in the experiment with EKVX, 6.78 µM (inactive); in the experiment with HCC 2998, 9.33 µM (inactive); in the experiment with HOP-62, 13.4 µM (inactive); in the experiment on HT-29 it was 3.27 µM (inactive). The GI50 with M14 is 9.08 µM (inactive); with MOLT-4, 8.41 µM (inactive); with Malme-3M, 10.2 µM (inactive); in the experiment on NCI-H460 it was 9.82 µM (inactive); in the experiment with OVCAR-4, 7.83 µM (inactive); with OVCAR-5, 7.89 µM (inactive). The GI50 in the experiment on OVCAR-8 was 18.9 µM (inactive); in the experiment on RPMI-8226, 9.08 µM (inactive); with SK-MEL-2, 17.7 µM (inactive); in the experiment with SR, 9.95 µM (inactive); with SW-620 it was 5.85 µM (inactive); in the experiment with T47D it was 10.7 µM (inactive). Moreover, the GI50 in the experiment with U-251 was 3.1 µM (inactive); in the experiment with UO-31 it was 36.1 µM (inactive).
Take `COc1cc2c(cc1OC)[C@H]1C(=O)c3cc4c(cc3[C@H]1N(C)C2=O)OCO4`: the concentration for 50% growth inhibition (GI50) in the experiment with CCRF-CEM is 0.366 µM (active); in the experiment on COLO 205 it was 6.14 µM (inactive); in the experiment on EKVX it was > 100 µM (inactive); with HCC 2998, 37.6 µM (inactive); in the experiment on HOP-62 it was 5.07 µM (inactive); in the experiment on HT-29, 5.27 µM (inactive). In addition, the GI50 with M14 was 2.92 µM (inactive); with MOLT-4 it was 0.3 µM (active); with Malme-3M it was 7.53 µM (inactive); in the experiment with NCI-H460 it was 0.955 µM (active); in the experiment on OVCAR-4, > 100 µM (inactive); with OVCAR-5, > 100 µM (inactive). Besides, the GI50 is 30.4 µM (inactive) in the experiment with OVCAR-8; 4.34 µM (inactive) in the experiment with RPMI-8226; > 100 µM (inactive) with SK-MEL-2; 0.557 µM (active) in the experiment with SR; 2.44 µM (inactive) in the experiment on SW-620; > 28.2 µM (inactive) in the experiment with T47D. Further, the GI50 in the experiment with U-251 is 1.03 µM (active); in the experiment with UO-31 it was 1.42 µM (inactive).

The values above are taken from ChEMBL document CHEMBL1201862, “PubChem BioAssay data set” (2004).
